{
  "source": "paper PMC3877196",
  "about": "(Toxicon : official journal of the International Society on …, 2013)",
  "molecular_target": "T1, IXOSP (Ixodes scapularis salivary serine protease) (Ixodes scapularis, UniProt Q4PMM2)",
  "T1 sequence (Q4PMM2 51-273)": "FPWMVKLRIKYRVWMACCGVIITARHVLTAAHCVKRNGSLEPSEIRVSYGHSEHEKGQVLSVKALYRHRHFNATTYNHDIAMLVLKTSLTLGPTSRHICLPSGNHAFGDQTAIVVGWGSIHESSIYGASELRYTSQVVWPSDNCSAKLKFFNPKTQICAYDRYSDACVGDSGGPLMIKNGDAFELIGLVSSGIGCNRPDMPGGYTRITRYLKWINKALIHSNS",
  "assay": "amidolytic assay, pNA release at […] nm",
  "format": "biochemical",
  "settings": "read-out: Inhibition of activity (% ± SD)",
  "note": "*1 amine or outer side, *2 acyl side, *3 side chain or, on linkers, in order; H or OH if unused. Where a SMILES comes first, the peptide text is derived from it. CO = O=C([*:1])[*:2]",
  "data": [
    {"smiles": "CC(C)[C@H](NC(=O)[C@H](CCCNC(=N)N)NC(=O)N[C@@H](Cc1ccccc1)C(=O)O)C(=O)N[C@H](C=O)CCCNC(=N)N", "note": "[Antipain] ({Phe-CO}-Arg-Val-Arg-aldehyde)", "values": [
      {"measurement": "inhibition at 30 µM", "result": "55 ± 4", "unit": "%"}
    ]}
  ]
}
